Reference: patent publication US20250188030A1, “Biphenyl and Phenylpyridine Compounds” (Pfizer Inc., priority 2023, published 2025)
pIC50, pKi: −log10 of the molar value. Read-outs that look alike come from different tables or passages of the source.

Tests used:
KAT2A = KAT2A (Homo sapiens (Human), UniProt Q92830); assay: KAT2A acetyltransferase biochemical assay (RapidFire mass spectrometry, AcCoA to CoA)
MM.1S cells = assay: MM1.S 10 Day Proliferation Assay (CellTiter-Glo); assay type: cell-based, Human
Protocol: Human B lymphoblast cell line MM.1S was obtained from American Type Culture Collection (ATCC), Manassas, VA USA, Cat. MM.1S (ATCC® CRL-2974™). Cells were cultured in RPMI (Thermo Fisher Scientific/Gibco Life Technologies Cat. #111875-093) plus 10% (v/v) FBS (Thermo Fisher Scientific/Gibco Life Technologies Cat. #26140-079) and 1% Penicillin-Streptomycin (Thermo Fisher Scientific/Gibco Life Technologies Cat. #15070063) at 37° C. in 5% CO2.
MM1.S cells were trypsinized cell viability count performed, and cells suspended in complete media at 5,556 cells/ml. Cells were then seeded (90 μl/well) into a 96-well round black/clear bottom, ULA (Ultra-Low Attachment surface plate (Corning cat #4520) at a density of 500 cells/well. Cells were then incubated for 16 hours at 37° C. and 5% CO2. Compound dilution plates were prepared in 96-well, clear U-bottom, polypropylene plates (Corning 3365) in 100% DMSO at 10 mM stock concentration in duplicate wells, using a 10-point serial dilution (1:3 dilutions). Compounds were diluted to 1:100 in growth medium. Then 10 μl of diluted compounds were added to each well of the cell plates using a Beckman FX liquid handling system such that the highest compound concentration tested was 10 μM final, with a 0.1% final DMSO concentration in the total volume of 100 μl. Plates were incubated for 10 total days at 37° C. and 5% CO2. Fresh media containing compound was refreshed at 5 days treatment.
Finally, the treatment plates were removed from the incubator and 100 μl of CellTiter-Glo Luminescent reagent was added to each well, and plates were equilibrated in the dark for 30 minutes. Plates were read on the PHERAstar plate reader using the 96-well with Luminescent reading mode. IC50 values were calculated using a four-parameter fit with GraphPad Prism version 9.5.1 or in house modified IDBS ActivityBase data analyzing package.

H3K9AC (HT1080 cells) = assay: H3K9AC Sandwich ELISA Assay in HT1080 cells (KAT2A primary cell-based screening assay); parameters: species or system Human
Outline: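 HT1080 fibrosarcoma cells seeded 16 h, then treated 24 h at 37 °C with 10-point 1:3 compound dilutions (top 10 µM final, 0.1% DMSO). Acid lysates neutralized with butyrate/PMSF; H3K9ac measured by total-H3-capture sandwich ELISA with luminescent HRP readout, IC50 by four-parameter fit.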

[1] = read-out: KAT2A Ki at 1 μM AcCoA, 5 μM H3 1-21 peptide, 0.5 nM KAT2A, 90-minute reaction
[2] = Homo sapiens, HT-1080, H3K9AC sandwich ELISA
[3] = KAT2A Ki at 1 μM AcCoA, 5 μM H3 1-21 peptide, 0.5 nM KAT2A, 90-minute reaction

Sequence of KAT2A (Q92830 whole entry): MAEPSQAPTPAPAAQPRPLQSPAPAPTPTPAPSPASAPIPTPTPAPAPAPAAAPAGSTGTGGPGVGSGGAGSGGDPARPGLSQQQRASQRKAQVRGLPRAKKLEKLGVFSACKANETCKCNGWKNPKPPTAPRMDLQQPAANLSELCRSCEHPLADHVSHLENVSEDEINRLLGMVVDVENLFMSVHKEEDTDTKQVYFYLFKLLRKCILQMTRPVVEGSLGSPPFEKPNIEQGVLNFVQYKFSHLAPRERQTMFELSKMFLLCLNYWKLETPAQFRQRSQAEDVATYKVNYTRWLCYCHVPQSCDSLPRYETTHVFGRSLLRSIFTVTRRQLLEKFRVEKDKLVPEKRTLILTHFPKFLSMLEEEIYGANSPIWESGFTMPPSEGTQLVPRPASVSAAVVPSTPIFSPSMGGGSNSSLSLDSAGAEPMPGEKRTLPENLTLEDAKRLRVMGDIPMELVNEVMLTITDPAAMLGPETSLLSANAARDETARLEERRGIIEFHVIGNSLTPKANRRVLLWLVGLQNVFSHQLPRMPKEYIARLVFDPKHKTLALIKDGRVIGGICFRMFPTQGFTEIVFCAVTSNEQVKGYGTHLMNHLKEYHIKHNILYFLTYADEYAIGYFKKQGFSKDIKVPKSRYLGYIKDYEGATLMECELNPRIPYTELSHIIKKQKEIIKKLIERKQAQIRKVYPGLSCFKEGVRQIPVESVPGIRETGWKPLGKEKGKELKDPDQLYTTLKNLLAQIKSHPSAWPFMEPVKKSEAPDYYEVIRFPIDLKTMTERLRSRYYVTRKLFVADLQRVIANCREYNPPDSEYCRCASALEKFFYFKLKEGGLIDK

pKi (KAT2A; [1])	pIC50 (MM.1S cells; Homo sapiens, MM1.S, 240 h)	pIC50 (H3K9AC (HT1080 cells); [2])	pKi (KAT2A; [3])	pIC50 (MM.1S cells)	pIC50 (H3K9AC (HT1080 cells); H3K9AC sandwich ELISA)	SMILES
10.40	8.85	9.05	–	–	–	CC(C)c1ccccc1-c1cc(CC(=O)NS(=O)(=O)C2(C)CC2)ccc1O[C@@H]1CC[C@@H](NC(=O)[C@@]2(F)CNC3(CCC3)C2)C1 [Example C54, (7S)-7-fluoro-N-[(1R,3R)-3-({5-[2-(1-methylcyclopropane-1-sulfonamido)-2-oxoethyl]-2′-(propan-2-yl)[1,1′-biphenyl]-2-yl}oxy)cyclopentyl]-5-azaspiro[3.4]octane-7-carboxamide]
9.96	8.60	9.10	–	–	–	CC(C)c1ccccc1-c1cc(CC(=O)NS(=O)(=O)C(C)C)ccc1O[C@@H]1CC[C@@H](NC(=O)[C@@]2(F)CNC3(CCC3)C2)C1 [Example C55, (7S)-7-fluoro-N-[(1R,3R)-3-({5-[2-oxo-2-(propane-2-sulfonamido)ethyl]-2′-(propan-2-yl)[1,1′-biphenyl]-2-yl}oxy)cyclopentyl]-5-azaspiro[3.4]octane-7-carboxamide]
–	–	–	9.68	8.20	8.41	CC(C(=O)NS(C)(=O)=O)c1ccc(O[C@@H]2CC[C@@H](NC(=O)[C@@H]3CC(C)(C)CN3C)C2)c(-c2cccc(F)c2C2CCC2)c1 (single isomer, unassigned) [Example E9]
8.77	7.13	7.62	–	–	–	CN1CC(C)(C)C[C@H]1C(=O)N[C@@H]1CC[C@@H](Oc2ccc(C(C)(C)C(=O)NS(C)(=O)=O)cc2-c2ccc(F)c(F)c2C2CCC2)C1 [Example E11, N-{(1R,3R)-3-[(2′-cyclobutyl-3′,4′-difluoro-5-{1-[(methanesulfonyl)amino]-2-methyl-1-oxopropan-2-yl}[1,1′-biphenyl]-2-yl)oxy]cyclopentyl}-1,4,4-trimethyl-L-prolinamide]
9.40	8.40	8.52	–	–	–	CCc1ccccc1-c1cc(CC(=O)NS(=O)(=O)C2(C)CC2)ccc1O[C@@H]1CC[C@@H](NC(=O)[C@@]2(F)CNC3(CCC3)C2)C1 [Example C51, (7S)-N-[(1R,3R)-3-({2′-ethyl-5-[2-(1-methylcyclopropane-1-sulfonamido)-2-oxoethyl][1,1′-biphenyl]-2-yl}oxy)cyclopentyl]-7-fluoro-5-azaspiro[3.4]octane-7-carboxamide]
8.39	6.83	7.12	–	–	–	CC1(C)C[C@](F)(C(=O)N[C@@H]2CC[C@@H](Oc3ccc(C(C)(C)C(=O)O)cc3-c3cccc(F)c3C3CCC3)C2)CN1 (single isomer, unassigned) [Example A4]
8.75	–	–	–	6.43	7.54	CC[C@](C)(C(=O)O)c1ccc(O[C@@H]2CC[C@@H](NC(=O)[C@]3(F)CNC4(CCC4)C3)C2)c(-c2cccc(F)c2C2CCC2)c1 (single isomer, unassigned) [Example A12]
< 7.00	–	–	–	< 6.00	< 6.00	CCc1c(F)cccc1-c1cc(C(=O)O)ccc1O[C@@H]1CC[C@@H](NC(=O)[C@@]2(F)CNC3(CCCC3)C2)C1 (single isomer, unassigned) [Example A43]
6.15	–	–	–	< 5.00	< 6.00	CC(C)c1c(F)cccc1-c1cc(C(C)(C)C(=O)NS(C)(=O)=O)ccc1O[C@@H]1CC[C@@H](NC(=O)[C@@]2(F)CNC3(CCC3)C2)C1 (single isomer, unassigned) [Example C20]
–	7.94	8.57	10.10	–	–	CS(=O)(=O)NC(=O)Cc1ccc(O[C@@H]2CC[C@@H](NC(=O)C3(F)CNC4(CCCC4)C3)C2)c(-c2cccc(F)c2C2CCC2)c1 (single isomer, unassigned) [Example B16]
8.65	6.60	7.67	–	–	–	CCc1c(F)cccc1-c1cc(C(C)(C)C(=O)NS(C)(=O)=O)ccc1O[C@@H]1CC[C@@H](NC(=O)[C@@]2(F)CNC3(CCC3)C2)C1 (single isomer, unassigned) [Example C11]
9.72	8.85	9.22	–	–	–	CCc1c(F)cccc1-c1cc(CC(=O)NS(=O)(=O)C2(C)CC2)ccc1O[C@@H]1CC[C@@H](NC(=O)[C@@]2(F)CNC3(CCCC3)C2)C1 (single isomer, unassigned) [Example C50]
7.04	6.30	7.01	–	–	–	CC(C)c1ccccc1-c1cc(CC(=O)O)ccc1O[C@@H]1CC[C@@H](NC(=O)[C@@H]2CC(C)(C)CN2C)C1 [Example D11, [2′-(propan-2-yl)-6-({(1R,3R)-3-[(1,4,4-trimethyl-L-prolyl)amino]cyclopentyl}oxy)[1,1′-biphenyl]-3-yl]acetic acid]
8.88	6.80	–	–	–	8.31	CC1(C)C[C@@](F)(C(=O)N[C@@H]2CC[C@@H](Oc3ccc(C(=O)O)cc3-c3cccc(F)c3C3CCC3)C2)CN1 (single isomer, unassigned) [Example A14]
7.97	6.38	7.35	–	–	–	C[C@@H](C(=O)O)c1ccc(O[C@@H]2CC[C@@H](NC(=O)[C@@H]3CC(C)(C)CN3C)C2)c(-c2cccc(F)c2C2CCC2)c1 (single isomer, unassigned) [Example D13]
9.17	7.59	–	–	–	8.37	O=C(O)Cc1ccc(O[C@@H]2CC[C@@H](NC(=O)[C@@]3(F)CNC4(CCCC4)C3)C2)c(-c2cccc(F)c2C2CCC2)c1 (single isomer, unassigned) [Example A25]
10.70	8.74	–	–	–	9.22	CN(C)S(=O)(=O)NC(=O)Cc1cccc(O[C@@H]2CC[C@@H](NC(=O)[C@@]3(F)CNC4(CCC4)C3)C2)c1-c1cccc(F)c1C1CCC1 (atropisomer, axis not shown) [Example I17, (7S)-N-[(1R,3R)-3-({(1ψ)-2′-cyclobutyl-6-[2-(dimethylsulfamamido)-2-oxoethyl]-3′-fluoro[1,1′-biphenyl]-2-yl}oxy)cyclopentyl]-7-fluoro-5-azaspiro[3.4]octane-7-carboxamide]
9.08	–	–	–	6.87	7.95	CC[C@](C)(C(=O)O)c1ccc(O[C@@H]2CC[C@@H](NC(=O)[C@]3(F)CNC4(CCC4)C3)C2)c(-c2cccc(F)c2C2CCC2)c1 (single isomer, unassigned) [Example A9]
10.40	8.85	–	–	–	8.68	CCS(=O)(=O)NC(=O)C(C)(C)c1ccc(O[C@@H]2CC[C@@H](NC(=O)[C@@]3(F)CNCC4(CCC4)C3)C2)c(-c2cccc(F)c2C2CCC2)c1 (single isomer, unassigned) [Example B31]
8.42	6.99	7.68	–	–	–	CN1C[C@](F)(C(=O)N[C@@H]2CC[C@@H](Oc3ccc(C(C)(C)C(=O)NS(C)(=O)=O)cc3-c3cccc(F)c3C3CCC3)C2)CC1(C)C (single isomer, unassigned) [Example B7]
5.74	5.12	–	–	–	–	CC(C)(C(=O)O)c1ccc(O[C@@H]2CC[C@@H](NC(=O)[C@@]3(F)CNC4(CCCC4)C3)C2)c(-c2cccc(F)c2C2CCC2)c1 (single isomer, unassigned) [Example A5]
–	–	–	–	8.04	8.52	CC(C)c1ccccc1-c1cc(C(=O)O)ccc1O[C@@H]1CC[C@@H](NC(=O)[C@@]2(F)CNC3(CCCC3)C2)C1 (single isomer, unassigned) [Example A41]
7.34	–	–	–	–	< 6.00	CCc1c(F)cccc1-c1cc(CC(=O)NS(=O)(=O)C(C)C)ccc1O[C@@H]1CC[C@@H](NC(=O)[C@@]2(F)CNC3(CCCC3)C2)C1 (single isomer, unassigned) [Example C72]
10.15	–	–	–	–	8.82	CCc1c(F)cccc1-c1cc([C@@H](C)C(=O)NS(=O)(=O)C2(C)CC2)ccc1O[C@@H]1CC[C@@H](NC(=O)[C@@]2(F)CNC3(CCCC3)C2)C1 (single isomer, unassigned) [Example C87]
5.56	–	< 6.00	–	–	–	CCc1c(F)cccc1-c1cc(C(C)(C)C(=O)NS(=O)(=O)CC)ccc1O[C@@H]1CC[C@@H](NC(=O)[C@@]2(F)CNC3(CCC3)C2)C1 [Example C17, (7S)-N-[(1R,3R)-3-({5-[1-(ethanesulfonamido)-2-methyl-1-oxopropan-2-yl]-2′-ethyl-3′-fluoro[1,1′-biphenyl]-2-yl}oxy)cyclopentyl]-7-fluoro-5-azaspiro[3.4]octane-7-carboxamide]
